From patent US20240091324A1, “GASTROINTESTINAL HEALTH COMPOSITION” (priority 2019, published 2024)

Key:
Enterocyte = assay: Observed therapeutic effective dose determined in the in vitro experiments (Table 4); type: cell-based, human
Method: (§1) The observed therapeutic effective dose was determined in the in vitro experiments described herein.
(§2) Table 4 summarises the observed therapeutic effective dose for each GaRP formulation component.

Macrophage = assay: as above; type: cell-based, human
Method: as §1, §2

[1] = test system: Bacteria (AIEC obtained from IBD and IBS patients); assay: as above; type: cell-based, E. coli; conditions: Not relevant = no anti-attachment or anti-invasive effect on the AIEC
Method: as §1, §2

MUC4 = assay: qPCR of MUC gene expression in Caco-2:HT-29-MTX 75:25 coculture; type: cell-based, human; conditions: 24 h
Method: (§3) Caco-2:HT-29-MTX 75:25 coculture: This co-culture model was used to simulate the human colonic epithelium (Hilgendorh C, 2000). The Caco-2 cells (passage 8) and the HT29-MTX cells (passage 9) were combined at a 75:25 ratio in DMEM with 10% FBS. The combined cells (6.4×10^4 cells/ml) were seeded into 25 cm^2 in a total of 5 ml per flask. The coculture was incubated at 37° C. in a 5% CO2 atmosphere with medium refreshed every 48 h. At 15 days post seeding, the coculture monolayer was washed three times in DMEM and replaced with 5 ml of pre-warmed test solution, and then incubated for 24 h.
(§4) Before RNA extraction, cells were collected by centrifugation at 5,000 g for 5 min, 4° C. the cell pellet was washed three times in ice-cold PBS followed by resuspension in 500 μl of ice-cold PBS. The total RNA of 2×10^6 cells per sample was extracted using a PureLink RNA mini kit with 1.5 μg of RNA (with A260/A280 ratio between 2.00 and 2.20) reverse-transcribed into cDNA using a High Capacity cDNA RT kit. The expression of the genes of interest was quantified using the PowerUp SYBR green Master mix. In brief, triplicate qPCR reactions was set up using 20 ng cDNA and 500 nM primers in a MicroAmp optical 384-well reaction plates using a Biomek-4000 automated liquid handler (Beckman Coulter, Brea, CA, USA). Amplification was run in a ViiA7 Real-Time PCR system (Thermo Fisher Scientific) at the following conditions: 95° C. for 20 seconds followed by 40 cycles of 95° C. for 1 second and 60° C. for 20 seconds; and a melt curve stage: 95° C., 15 s; 60° C., 60 s. The results of qPCR were analysed with the 2-ΔΔCT method as previously described using the QuantStudio Software V1.3 (Applied Biosystems). Relative gene expression values were normalized by using GAPDH and 18S as the multiple endogenous reference genes.
(§5) A 75:25 caco-2/HT-29 co-culture was established as previously described herein and the effect of a 24 h exposure to bromelain, threonine, sodium butyrate, vitamin D3 and the two different GaRP formulations on the expression of the following MUC genes was investigated using qPCR. At the end of the 24 h treatment, the supernatant in the 25 cm^2 flasks was collected and the coculture monolayer was trypsinised as previously described herein.
as §3, with “This” for “Caco-2:HT-29-MTX 75:25 coculture: This”, “epithelium.” for “epithelium (Hilgendorh C, 2000).”
(§6) The test solutions of cholecalciferol (VD3) and L-Threonine (L-Thr) (Sigma-Aldrich) in culture medium were prepared one day before the treatment. At 15 days post seeding, the coculture monolayer was washed three times at hourly interval with culture medium, which was then replaced with 5 ml of pre-warmed test solution, and then incubated for 24 h.
(§7) At the end of the 24 h treatment, the supernatant in the 25 cm^2 flasks was collected and the coculture monolayer was trypsinised as previously described. Cells were collected by centrifugation at 5,000 g for 5 min, 4° C. After washed three times with ice-cold PBS, the cells were resuspended in 500 μl of ice-cold PBS. The total RNA of 2×10^6 cells per sample was extracted using the PureLink RNA mini kit (Invitrogen). For real-time PCR analysis, 1.5 μg of RNA (with A260/A280 ratio between 2.00 and 2.20) was reverse transcribed into cDNA using the High Capacity cDNA RT kit (Applied Biosystems, Foster City, CA, USA).
(§8) The expression of the human MUC2 and MUC7 genes in the Caco-2:HT-29-MTX 75:25 coculture was quantified using the PowerUp SYBR green Master mix (Applied Biosystems). […]

MUC7 = assay: as above; type: cell-based, human; conditions: 24 h
Method: as §3, §4, §5
as §3, with “This” for “Caco-2:HT-29-MTX 75:25 coculture: This”, “epithelium.” for “epithelium (Hilgendorh C, 2000).”
as §6, §7, §8

MUC13 = assay: as above; type: cell-based, human; conditions: 24 h
Method: as §3, §4, §5
as §3, with “This” for “Caco-2:HT-29-MTX 75:25 coculture: This”, “epithelium.” for “epithelium (Hilgendorh C, 2000).”
as §6, §7, §8

MUC17 = assay: as above; type: cell-based, human; conditions: 24 h
Method: as §3, §4, §5
as §3, with “This” for “Caco-2:HT-29-MTX 75:25 coculture: This”, “epithelium.” for “epithelium (Hilgendorh C, 2000).”
as §6, §7, §8

MUC1 = assay: as above; type: cell-based, human; conditions: 24 h
Method: as §3, §4, §5
as §3, with “This” for “Caco-2:HT-29-MTX 75:25 coculture: This”, “epithelium.” for “epithelium (Hilgendorh C, 2000).”
as §6, §7, §8

MUC2 = assay: as above; type: cell-based, human; conditions: 24 h
Method: as §3, §4, §5
as §3, with “This” for “Caco-2:HT-29-MTX 75:25 coculture: This”, “epithelium.” for “epithelium (Hilgendorh C, 2000).”
as §6, §7, §8

MUC6 = assay: as above; type: cell-based, human; conditions: 24 h
Method: as §3, §4, §5
as §3, with “This” for “Caco-2:HT-29-MTX 75:25 coculture: This”, “epithelium.” for “epithelium (Hilgendorh C, 2000).”
as §6, §7, §8

MUC19 = assay: as above; type: cell-based, human; conditions: 24 h
Method: as §3, §4, §5
as §3, with “This” for “Caco-2:HT-29-MTX 75:25 coculture: This”, “epithelium.” for “epithelium (Hilgendorh C, 2000).”
as §6, §7, §8

MUC15 = assay: as above; type: cell-based, human; conditions: 24 h
Method: as §3, §4, §5
as §3, with “This” for “Caco-2:HT-29-MTX 75:25 coculture: This”, “epithelium.” for “epithelium (Hilgendorh C, 2000).”
as §6, §7, §8

MUC5AC = assay: as above; type: cell-based, human; conditions: 24 h
Method: as §3, §4, §5
as §3, with “This” for “Caco-2:HT-29-MTX 75:25 coculture: This”, “epithelium.” for “epithelium (Hilgendorh C, 2000).”
as §6, §7, §8

MUC12 = assay: as above; type: cell-based, human; conditions: 24 h
Method: as §3, §4, §5
as §3, with “This” for “Caco-2:HT-29-MTX 75:25 coculture: This”, “epithelium.” for “epithelium (Hilgendorh C, 2000).”
as §6, §7, §8

MUC3 = assay: as above; type: cell-based, human; conditions: 24 h
Method: as §3, §4, §5
as §3, with “This” for “Caco-2:HT-29-MTX 75:25 coculture: This”, “epithelium.” for “epithelium (Hilgendorh C, 2000).”
as §6, §7, §8

MUC5B = assay: as above; type: cell-based, human; conditions: 24 h
Method: as §3, §4, §5
as §3, with “This” for “Caco-2:HT-29-MTX 75:25 coculture: This”, “epithelium.” for “epithelium (Hilgendorh C, 2000).”
as §6, §7, §8

MUC8 = assay: as above; type: cell-based, human; conditions: 24 h
Method: as §3, §4, §5
as §3, with “This” for “Caco-2:HT-29-MTX 75:25 coculture: This”, “epithelium.” for “epithelium (Hilgendorh C, 2000).”
as §6, §7, §8

MUC16 = assay: as above; type: cell-based, human; conditions: 24 h
Method: as §3, §4, §5
as §3, with “This” for “Caco-2:HT-29-MTX 75:25 coculture: This”, “epithelium.” for “epithelium (Hilgendorh C, 2000).”
as §6, §7, §8

MUC20 = assay: as above; type: cell-based, human; conditions: 24 h
Method: as §3, §4, §5
as §3, with “This” for “Caco-2:HT-29-MTX 75:25 coculture: This”, “epithelium.” for “epithelium (Hilgendorh C, 2000).”
as §6, §7, §8

[2] = test system: IL-8 release from Caco-2 monolayers; assay: Release of IL-8 from polarised Caco-2 monolayers stimulated with LPS, TNF-α, IFN-β; type: cell-based, human
Method: Inflammatory model of Caco-2 polarised monolayer stimulated with inflammatory mediators LPS, TNF-α, IFN-β: Polarised Caco-2 models were generated as previously described. When cell cultures reached a baseline TER of >1000/cm^2, the monolayers were stimulated by addition of 0.6 ml containing 50 ng/ml IFN-β, 10 μg/ml LPS and 5 ng/ml TNFα to the basolateral compartment. Immediately after the addition of the stimulation cocktail 0.25 ml of GaRP±0-80 μg/ml bromelain was applied to the apical compartment. After the 24 h incubation culture supernatants from the apical side were collected for quantitation of IL-8.
The human colorectal adenocarcinoma cell-line C2BBe1 was grown and maintained in Dulbecco's modified Eagle's medium (DMEM) supplemented with 10% v/v fetal bovine serum (FBS), 4 mM L-glutamine, 100 U/ml penicillin and […] streptomycin. All experiments were conducted on C2BBe1 cells within 12 passages after thawing.
In an experiment to evaluate the anti-inflammatory effect of bromelain or various GaRP formulations, 0.25 ml of test samples was applied to the apical side for 24 h, at the same time 0.6 ml of a cocktail containing 50 ng/ml IFN+10 ug/ml LPS+5 ng/ml TNF was added to the basolateral side in this model. After the 24 h incubation culture supernatants from the apical side were collected and IL-8 quantitated by ELISA.

C=C1CC[C@H](O)C/C1=C/C=C1\CCC[C@]2(C)[C@@H]([C@H](C)CCCC(C)C)CC[C@@H]12 [Vitamin D3, Cholecalciferol]
observed therapeutic effective dose, Target cell Enterocyte (pg/cell) (Enterocyte): 0.018 pg/cell | observed therapeutic effective dose, Target cell Macrophage (pg/cell) (Macrophage): 0.36 pg/cell | observed therapeutic effective dose, Target cell Bacteria (fg/cell) [1]: Not relevant | Effect on MUC gene expression, MUC4 (MUC4; 0.048 μg/ml vitamin D3): No effect | Effect on MUC gene expression, MUC4 (MUC4; 0.48 μg/ml vitamin D3): No effect | Effect on MUC gene expression, MUC7 (MUC7; 0.048 μg/ml vitamin D3): No effect | Effect on MUC gene expression, MUC7 (MUC7; 0.48 μg/ml vitamin D3): No effect | effect on the expression of MUC7, individually (MUC7; titration, FIGS. 9A & 9B): did not exert a major effect | Effect on MUC gene expression, MUC13: Decreased by (MUC13; 0.048 μg/ml vitamin D3): by 37% | Effect on MUC gene expression, MUC13: Decreased by (MUC13; 0.48 μg/ml vitamin D3): by 56% | Effect on MUC gene expression, MUC17: Decreased by (MUC17; 0.048 μg/ml vitamin D3): by 31% | Effect on MUC gene expression, MUC17: Decreased by (MUC17; 0.48 μg/ml vitamin D3): by 40% | Effect on MUC gene expression, MUC1: Decreased by (MUC1; 0.048 μg/ml vitamin D3): by 37% | Effect on MUC gene expression, MUC1: Decreased by (MUC1; 0.48 μg/ml vitamin D3): by 58% | Effect on MUC gene expression, MUC2 (MUC2; 0.048 μg/ml vitamin D3): No effect | Effect on MUC gene expression, MUC2 (MUC2; 0.48 μg/ml vitamin D3): No effect | effect on the expression of MUC2, individually (MUC2; titration, FIGS. 9A & 9B): did not exert a major effect | Effect on MUC gene expression, MUC6 (MUC6; 0.048 μg/ml vitamin D3): No effect | Effect on MUC gene expression, MUC6 (MUC6; 0.48 μg/ml vitamin D3): No effect | Effect on MUC gene expression, MUC19 (MUC19; 0.048 μg/ml vitamin D3): No effect | Effect on MUC gene expression, MUC19 (MUC19; 0.48 μg/ml vitamin D3): No effect | Effect on MUC gene expression, MUC15 (MUC15; 0.048 μg/ml vitamin D3): No effect | Effect on MUC gene expression, MUC15 (MUC15; 0.48 μg/ml vitamin D3): No effect | Effect on MUC gene expression, MUC5AC: Decreased by (MUC5AC; 0.048 μg/ml vitamin D3): by 42% | Effect on MUC gene expression, MUC5AC: Decreased by (MUC5AC; 0.48 μg/ml vitamin D3): by 42% | Effect on MUC gene expression, MUC12 (MUC12; 0.048 μg/ml vitamin D3): No effect | Effect on MUC gene expression, MUC12 (MUC12; 0.48 μg/ml vitamin D3): No effect | Effect on MUC gene expression, MUC3: Decreased by (MUC3; 0.048 μg/ml vitamin D3): by 43% | Effect on MUC gene expression, MUC3 (MUC3; 0.48 μg/ml vitamin D3): No effect | Effect on MUC gene expression, MUC5B: Decreased by (MUC5B; 0.048 μg/ml vitamin D3): by 56% | Effect on MUC gene expression, MUC5B: Decreased by (MUC5B; 0.48 μg/ml vitamin D3): by 63% | Effect on MUC gene expression, MUC8: Decreased by (MUC8; 0.048 μg/ml vitamin D3): by 30% | Effect on MUC gene expression, MUC8: Decreased by (MUC8; 0.48 μg/ml vitamin D3): by 50% | Effect on MUC gene expression, MUC16 (MUC16; 0.048 μg/ml vitamin D3): No effect | Effect on MUC gene expression, MUC16 (MUC16; 0.48 μg/ml vitamin D3): No effect | Effect on MUC gene expression, MUC20: Decreased by (MUC20; 0.048 μg/ml vitamin D3): by 18% | Effect on MUC gene expression, MUC20: Decreased by (MUC20; 0.48 μg/ml vitamin D3): by 27%

C[C@@H](O)[C@H](N)C(=O)O [L-threonine]
observed therapeutic effective dose, Target cell Enterocyte (pg/cell) (Enterocyte): 15 pg/cell | observed therapeutic effective dose, Target cell Macrophage (pg/cell) (Macrophage): 300 pg/cell | % inhibition of the release of IL-8 Median ± SEM ([2]; formulation or component plus 80 ug/ml bromelain, 24 h): 73 ± 11% | % increase in anti-inflammatory activity compared to equivalent formulation without bromelain (difference of means) ([2]; plus 80 ug/ml bromelain): 55% | % inhibition of the release of IL-8 Median ± SEM ([2]; without bromelain, test sample apical 24 h, IFN+LPS+TNF cocktail basolateral): 18 ± 1%
